# Measured values reported in ChEMBL document CHEMBL4804284.
# How the values were obtained:
# Design in all cases: scale not given: the % may be the effect or the level left
# [1] = biological target: Serine/threonine-protein kinase ICK (Homo sapiens) (UniProt Q9UPZ9); assay: Inhibition of DNA-tagged human ICK assessed as percent of control at 50000 nM by qPCR analysis relative to control
# [2] = system: eIF-2-alpha kinase GCN2 (Homo sapiens), Q9P2K8 [S808G]; assay: Inhibition of DNA-tagged human GCN2 S808G mutant kinase domain 2 assessed as percent of control at 50000 nM by qPCR analysis relative to control
# [3] = biological target: Mitogen-activated protein kinase 4 (Homo sapiens) (UniProt P31152); assay: Inhibition of DNA-tagged human ERK4 assessed as percent of control at 50000 nM by qPCR analysis relative to control
# [4] = biological target: Mitogen-activated protein kinase 3 (Homo sapiens) (UniProt P27361); assay: Inhibition of DNA-tagged human ERK1 assessed as percent of control at 50000 nM by qPCR analysis relative to control
# [5] = biological target: Receptor tyrosine-protein kinase erbB-4 (Homo sapiens) (UniProt Q15303); assay: Inhibition of DNA-tagged human ERBB4 assessed as percent of control at 50000 nM by qPCR analysis relative to control
# [6] = biological target: Ephrin type-A receptor 8 (Homo sapiens) (UniProt P29322); assay: Inhibition of DNA-tagged human EPHA8 assessed as percent of control at 50000 nM by qPCR analysis relative to control
# [7] = biological target: Ephrin type-A receptor 4 (Homo sapiens) (UniProt P54764); assay: Inhibition of DNA-tagged human EPHA4 assessed as percent of control at 50000 nM by qPCR analysis relative to control
# [8] = system: Epidermal growth factor receptor (Homo sapiens), P00533 [T790M]; assay: Inhibition of DNA-tagged human EGFR T790M mutant assessed as percent of control at 50000 nM by qPCR analysis relative to control
# [9] = system: Epidermal growth factor receptor (Homo sapiens), P00533 [UNDEFINED MUTATION]; assay: Inhibition of DNA-tagged human EGFR L747-E749del/A750P double mutant assessed as percent of control at 50000 nM by qPCR analysis relative to control
# [10] = biological target: Casein kinase II subunit alpha' (Homo sapiens) (UniProt P19784); assay: Inhibition of DNA-tagged human CSNK2A2 assessed as percent of control at 50000 nM by qPCR analysis relative to control
# Chain of Casein kinase II subunit alpha' (Homo sapiens) (P19784 whole entry, looked up): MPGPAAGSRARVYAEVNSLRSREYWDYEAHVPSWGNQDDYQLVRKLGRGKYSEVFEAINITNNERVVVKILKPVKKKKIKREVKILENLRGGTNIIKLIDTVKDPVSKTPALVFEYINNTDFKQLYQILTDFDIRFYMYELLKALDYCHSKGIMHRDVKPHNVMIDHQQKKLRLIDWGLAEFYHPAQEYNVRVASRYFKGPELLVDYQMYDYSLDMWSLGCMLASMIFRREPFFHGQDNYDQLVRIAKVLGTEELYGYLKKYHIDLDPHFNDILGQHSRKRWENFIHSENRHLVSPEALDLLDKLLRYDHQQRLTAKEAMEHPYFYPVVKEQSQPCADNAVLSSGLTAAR
# [11] = biological target: Calcium/calmodulin-dependent protein kinase type 1D (Homo sapiens) (UniProt Q8IU85); assay: Inhibition of DNA-tagged human CAMK1D assessed as percent of control at 50000 nM by qPCR analysis relative to control
# [12] = biological target: Calcium/calmodulin-dependent protein kinase type 1 (Homo sapiens) (UniProt Q14012); assay: Inhibition of DNA-tagged human CAMK1 assessed as percent of control at 50000 nM by qPCR analysis relative to control
# [13] = biological target: Aurora kinase C (Homo sapiens) (UniProt Q9UQB9); assay: Inhibition of DNA-tagged human AURKC assessed as percent of control at 50000 nM by qPCR analysis relative to control
# [14] = biological target: NUAK family SNF1-like kinase 1 (Homo sapiens) (UniProt O60285); assay: Inhibition of DNA-tagged human ARK5 assessed as percent of control at 50000 nM by qPCR analysis relative to control
# [15] = system: Tyrosine-protein kinase ABL1 (Homo sapiens), P00519 [F317L]; assay: Inhibition of DNA-tagged phosphorylated human ABL1 F317L mutant assessed as percent of control at 50000 nM by qPCR analysis relative to control
# Chain of Tyrosine-protein kinase ABL1 (Homo sapiens), P00519 [F317L] (P00519 whole entry F317L): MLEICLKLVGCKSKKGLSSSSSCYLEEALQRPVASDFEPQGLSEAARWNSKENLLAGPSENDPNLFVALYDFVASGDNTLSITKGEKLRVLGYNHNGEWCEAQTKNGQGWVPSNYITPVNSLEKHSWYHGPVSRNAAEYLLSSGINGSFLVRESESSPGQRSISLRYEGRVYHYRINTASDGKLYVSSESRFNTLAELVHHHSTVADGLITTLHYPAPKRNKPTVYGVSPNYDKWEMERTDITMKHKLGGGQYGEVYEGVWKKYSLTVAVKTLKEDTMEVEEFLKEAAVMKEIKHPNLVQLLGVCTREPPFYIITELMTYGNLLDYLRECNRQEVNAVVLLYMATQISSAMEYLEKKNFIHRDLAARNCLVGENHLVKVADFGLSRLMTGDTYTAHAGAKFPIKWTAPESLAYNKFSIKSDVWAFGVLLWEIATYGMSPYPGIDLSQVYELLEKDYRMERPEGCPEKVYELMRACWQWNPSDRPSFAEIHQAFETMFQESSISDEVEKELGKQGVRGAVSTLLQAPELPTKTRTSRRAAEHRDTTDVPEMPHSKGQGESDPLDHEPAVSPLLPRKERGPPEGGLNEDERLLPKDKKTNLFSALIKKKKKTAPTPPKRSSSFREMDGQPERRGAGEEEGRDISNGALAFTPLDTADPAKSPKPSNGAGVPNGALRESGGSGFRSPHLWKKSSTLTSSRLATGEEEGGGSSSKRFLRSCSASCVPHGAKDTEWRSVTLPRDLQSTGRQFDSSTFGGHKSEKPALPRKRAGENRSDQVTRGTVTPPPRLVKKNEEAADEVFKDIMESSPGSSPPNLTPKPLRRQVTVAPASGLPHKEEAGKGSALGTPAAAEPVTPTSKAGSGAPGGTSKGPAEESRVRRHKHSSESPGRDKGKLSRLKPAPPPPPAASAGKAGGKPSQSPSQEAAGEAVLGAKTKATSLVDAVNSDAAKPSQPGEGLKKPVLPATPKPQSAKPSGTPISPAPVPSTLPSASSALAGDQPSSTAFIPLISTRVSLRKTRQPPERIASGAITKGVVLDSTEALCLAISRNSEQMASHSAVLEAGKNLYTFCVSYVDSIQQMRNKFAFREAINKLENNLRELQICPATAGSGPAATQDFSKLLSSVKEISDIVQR
# [16] = system: Tyrosine-protein kinase ABL1 (Homo sapiens), P00519 [F317L]; assay: Inhibition of DNA-tagged non-phosphorylated human ABL1 F317L mutant assessed as percent of control at 50000 nM by qPCR analysis relative to control
# [17] = biological target: Leukocyte tyrosine kinase receptor (Homo sapiens) (UniProt P29376); assay: Inhibition of DNA-tagged human LTK assessed as percent of control at 50000 nM by qPCR analysis relative to control
# [18] = biological target: Mitogen-activated protein kinase kinase kinase kinase 2 (Homo sapiens) (UniProt Q12851); assay: Inhibition of DNA-tagged human MAP4K2 assessed as percent of control at 50000 nM by qPCR analysis relative to control
# [19] = biological target: Serine/threonine-protein kinase MARK1 (Homo sapiens) (UniProt Q9P0L2); assay: Inhibition of DNA-tagged human MARK1 assessed as percent of control at 50000 nM by qPCR analysis relative to control
# [20] = biological target: Serine/threonine-protein kinase Nek9 (Homo sapiens) (UniProt Q8TD19); assay: Inhibition of DNA-tagged human NEK9 assessed as percent of control at 50000 nM by qPCR analysis relative to control
# [21] = biological target: Cyclin-dependent kinase 18 (Homo sapiens) (UniProt Q07002); assay: Inhibition of DNA-tagged human PCTK3 assessed as percent of control at 50000 nM by qPCR analysis relative to control
# Chain of Cyclin-dependent kinase 18 (Homo sapiens) (Q07002 whole entry): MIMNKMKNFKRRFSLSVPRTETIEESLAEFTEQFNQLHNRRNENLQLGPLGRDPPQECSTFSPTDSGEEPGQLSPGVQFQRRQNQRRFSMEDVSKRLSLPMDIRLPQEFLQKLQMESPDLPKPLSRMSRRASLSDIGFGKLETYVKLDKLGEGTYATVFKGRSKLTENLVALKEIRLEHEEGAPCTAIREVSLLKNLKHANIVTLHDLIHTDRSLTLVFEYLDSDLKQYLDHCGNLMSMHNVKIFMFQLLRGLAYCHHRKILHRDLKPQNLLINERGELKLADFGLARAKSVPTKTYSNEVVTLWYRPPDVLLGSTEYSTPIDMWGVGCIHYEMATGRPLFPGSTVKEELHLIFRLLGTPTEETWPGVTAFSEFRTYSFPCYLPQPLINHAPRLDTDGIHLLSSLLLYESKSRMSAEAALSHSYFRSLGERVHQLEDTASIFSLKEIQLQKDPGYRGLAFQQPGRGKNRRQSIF
# [22] = biological target: Serine/threonine-protein kinase PknB (Mycobacterium tuberculosis) (UniProt P9WI81); assay: Inhibition of DNA-tagged Mycobacterium tuberculosis PKNB assessed as percent of control at 50000 nM by qPCR analysis relative to control
# [23] = biological target: Protein kinase C eta type (Homo sapiens) (UniProt P24723); assay: Inhibition of DNA-tagged human PRKCH assessed as percent of control at 50000 nM by qPCR analysis relative to control
# Chain of Protein kinase C eta type (Homo sapiens) (P24723 whole entry): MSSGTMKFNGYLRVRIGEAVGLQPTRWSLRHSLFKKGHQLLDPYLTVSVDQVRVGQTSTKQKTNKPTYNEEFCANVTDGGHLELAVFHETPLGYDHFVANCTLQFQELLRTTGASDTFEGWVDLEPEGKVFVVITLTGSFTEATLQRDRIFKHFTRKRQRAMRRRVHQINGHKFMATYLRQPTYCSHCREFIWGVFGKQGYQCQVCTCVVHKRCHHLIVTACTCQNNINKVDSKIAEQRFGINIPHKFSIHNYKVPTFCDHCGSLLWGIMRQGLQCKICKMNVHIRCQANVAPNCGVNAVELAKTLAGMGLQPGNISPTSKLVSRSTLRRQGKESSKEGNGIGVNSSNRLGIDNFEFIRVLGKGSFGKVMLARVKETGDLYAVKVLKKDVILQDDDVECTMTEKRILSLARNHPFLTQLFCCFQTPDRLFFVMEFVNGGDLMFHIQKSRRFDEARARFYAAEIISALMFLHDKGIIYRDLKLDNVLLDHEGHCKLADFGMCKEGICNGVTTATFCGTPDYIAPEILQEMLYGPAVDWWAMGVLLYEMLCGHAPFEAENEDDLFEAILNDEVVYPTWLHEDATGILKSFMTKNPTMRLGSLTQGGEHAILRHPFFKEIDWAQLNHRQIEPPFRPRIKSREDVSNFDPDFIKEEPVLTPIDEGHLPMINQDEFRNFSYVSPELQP
# [24] = biological target: Protein kinase C iota type (Homo sapiens) (UniProt P41743); assay: Inhibition of DNA-tagged human PRKCI assessed as percent of control at 50000 nM by qPCR analysis relative to control
# [25] = biological target: Dual serine/threonine and tyrosine protein kinase (Homo sapiens) (UniProt Q6XUX3); assay: Inhibition of DNA-tagged human RIPK5 assessed as percent of control at 50000 nM by qPCR analysis relative to control
# Chain of Dual serine/threonine and tyrosine protein kinase (Homo sapiens) (Q6XUX3 whole entry): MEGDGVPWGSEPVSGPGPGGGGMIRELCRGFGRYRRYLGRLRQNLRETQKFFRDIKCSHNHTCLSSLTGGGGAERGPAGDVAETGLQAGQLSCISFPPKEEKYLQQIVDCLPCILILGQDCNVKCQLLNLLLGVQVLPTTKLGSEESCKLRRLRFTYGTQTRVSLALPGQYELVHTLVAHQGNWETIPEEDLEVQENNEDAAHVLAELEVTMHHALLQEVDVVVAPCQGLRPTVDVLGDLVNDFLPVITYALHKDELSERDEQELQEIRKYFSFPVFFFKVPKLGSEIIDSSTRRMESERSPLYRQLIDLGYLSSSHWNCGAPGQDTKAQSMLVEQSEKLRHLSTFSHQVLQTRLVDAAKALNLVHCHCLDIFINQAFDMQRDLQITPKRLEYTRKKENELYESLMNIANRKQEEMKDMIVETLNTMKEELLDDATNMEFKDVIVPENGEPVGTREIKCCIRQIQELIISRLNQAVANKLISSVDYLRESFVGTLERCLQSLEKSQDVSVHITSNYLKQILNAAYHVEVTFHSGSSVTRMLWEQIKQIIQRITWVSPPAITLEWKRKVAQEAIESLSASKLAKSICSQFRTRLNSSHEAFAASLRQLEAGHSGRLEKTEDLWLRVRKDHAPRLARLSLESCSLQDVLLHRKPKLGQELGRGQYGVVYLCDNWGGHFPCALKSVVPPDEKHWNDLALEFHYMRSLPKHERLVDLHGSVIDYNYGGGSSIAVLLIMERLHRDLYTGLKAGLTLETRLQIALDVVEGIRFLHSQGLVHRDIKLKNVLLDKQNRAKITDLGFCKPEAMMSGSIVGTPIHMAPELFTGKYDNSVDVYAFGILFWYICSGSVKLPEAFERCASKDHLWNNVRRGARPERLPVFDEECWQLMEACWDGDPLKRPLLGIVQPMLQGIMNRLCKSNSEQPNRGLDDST
# [26] = biological target: Rho-associated protein kinase 1 (Homo sapiens) (UniProt Q13464); assay: Inhibition of DNA-tagged human ROCK1 assessed as percent of control at 50000 nM by qPCR analysis relative to control
# [27] = biological target: Ribosomal protein S6 kinase alpha-1 (Homo sapiens) (UniProt Q15418); assay: Inhibition of DNA-tagged human N-terminal RSK1 kinase domain 1 assessed as percent of control at 50000 nM by qPCR analysis relative to control
# Chain of Ribosomal protein S6 kinase alpha-1 (Homo sapiens) (Q15418 whole entry, the tested form may be a part): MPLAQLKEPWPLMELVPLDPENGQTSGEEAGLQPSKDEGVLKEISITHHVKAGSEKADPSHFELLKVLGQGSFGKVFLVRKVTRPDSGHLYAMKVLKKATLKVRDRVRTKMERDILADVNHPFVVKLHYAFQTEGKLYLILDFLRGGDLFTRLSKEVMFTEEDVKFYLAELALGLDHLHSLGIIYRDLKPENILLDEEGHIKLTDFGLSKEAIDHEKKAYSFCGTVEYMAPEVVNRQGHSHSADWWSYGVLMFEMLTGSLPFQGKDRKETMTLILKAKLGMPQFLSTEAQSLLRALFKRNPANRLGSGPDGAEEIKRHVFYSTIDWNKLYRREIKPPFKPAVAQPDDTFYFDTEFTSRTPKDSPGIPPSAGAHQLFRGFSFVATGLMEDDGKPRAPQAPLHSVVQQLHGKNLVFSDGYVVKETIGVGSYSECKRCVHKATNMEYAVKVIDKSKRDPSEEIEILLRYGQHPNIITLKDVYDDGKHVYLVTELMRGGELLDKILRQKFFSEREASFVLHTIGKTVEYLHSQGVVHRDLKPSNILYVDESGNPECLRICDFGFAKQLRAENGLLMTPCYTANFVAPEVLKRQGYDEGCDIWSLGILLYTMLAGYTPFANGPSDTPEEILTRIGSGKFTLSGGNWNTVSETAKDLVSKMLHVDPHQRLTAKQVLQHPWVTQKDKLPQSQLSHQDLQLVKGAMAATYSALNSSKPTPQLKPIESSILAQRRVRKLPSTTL
# [28] = biological target: Serine/threonine-protein kinase SIK2 (Homo sapiens) (UniProt Q9H0K1); assay: Inhibition of DNA-tagged human SIK2 assessed as percent of control at 50000 nM by qPCR analysis relative to control
# [29] = biological target: Serine/threonine-protein kinase tousled-like 1 (Homo sapiens) (UniProt Q9UKI8); assay: Inhibition of DNA-tagged human TLK1 assessed as percent of control at 50000 nM by qPCR analysis relative to control
# [30] = biological target: Serine/threonine-protein kinase ULK3 (Homo sapiens) (UniProt Q6PHR2); assay: Inhibition of DNA-tagged human ULK3 assessed as percent of control at 50000 nM by qPCR analysis relative to control
# Chain of Serine/threonine-protein kinase ULK3 (Homo sapiens) (Q6PHR2 whole entry): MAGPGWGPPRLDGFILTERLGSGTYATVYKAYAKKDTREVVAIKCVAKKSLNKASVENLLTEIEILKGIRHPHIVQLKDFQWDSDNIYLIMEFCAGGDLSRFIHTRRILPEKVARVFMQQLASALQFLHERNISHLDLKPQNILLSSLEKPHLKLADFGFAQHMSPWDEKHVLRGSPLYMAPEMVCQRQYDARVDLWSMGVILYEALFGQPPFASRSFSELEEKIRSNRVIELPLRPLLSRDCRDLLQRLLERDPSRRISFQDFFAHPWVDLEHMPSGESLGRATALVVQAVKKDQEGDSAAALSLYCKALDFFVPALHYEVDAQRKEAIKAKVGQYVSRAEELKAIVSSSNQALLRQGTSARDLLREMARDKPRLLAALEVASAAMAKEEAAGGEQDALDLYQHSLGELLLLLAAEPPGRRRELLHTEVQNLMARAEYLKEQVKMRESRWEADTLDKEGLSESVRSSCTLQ
compound,measurement,setting,value
CN1C(=O)/C(=C2/C(=O)Nc3ccccc32)c2ccccc21,Activity,[1],92%
same,Activity,[2],88%
same,Activity,[3],86%
same,Activity,[4],100%
same,Activity,[5],88%
same,Activity,[6],94%
same,Activity,[7],100%
same,Activity,[8],96%
same,Activity,[9],83%
same,Activity,[10],82%
same,Activity,[11],100%
same,Activity,[12],88%
same,Activity,[13],94%
same,Activity,[14],85%
same,Activity,[15],81%
same,Activity,[16],100%
same,Activity,[17],92%
same,Activity,[18],92%
same,Activity,[19],92%
same,Activity,[20],33%
same,Activity,[21],84%
same,Activity,[22],100%
same,Activity,[23],100%
same,Activity,[24],100%
same,Activity,[25],92%
same,Activity,[26],87%
same,Activity,[27],96%
same,Activity,[28],95%
same,Activity,[29],81%
same,Activity,[30],85%
